Measurements reported in US6607710B1, “Bisphosphonic acid derivative and compound thereof labeled with radioactive nuclide” (Nihon Medi-Physics Co., Ltd., priority 1999, dated 2003).
“And” between values parts separate entries of the source, which are not always exact repeats. Equal values may be shown once.

Assay: Determination of biodistribution of radiolabeled compounds in rats after caudal vein administration
Assay type: in vivo, SD strain rats
Settings: for Biodistribution, Blood / Biodistribution, Femur and Tibia / Biodistribution, Kidney / Biodistribution, Liver / Biodistribution, Urine: SD-rats female, n = 3, caudal vein
Procedure: SD strain rats (female, age in 8-9 weeks, n=3) were used with free access to water and food ad libitum, and anesthetized with Ravonal, (a trade name of thiopental sodium, manufactured by Tanabe Seiyaku Co., Ltd.), then the test sample solution was administered to the caudal vein. The test rats were killed by bleeding during the blood samples were taken from the abdominal aorta at each times of sampling after the administration. The organs of interest were excised. After measured the weights of these samples, the radioactivities were determined, and biodistributions were calculated. The results of determination of biodistribution relating to the labeled compounds obtained in Examples 1, 2 and 4 and the labeled compounds of methanediphosphonic acid (MDP) used as reference examples are shown in Tables 3 to 7. Determination results are indicated as %ID/g, and determination results of urine are indicated as %ID.

[1] = 15 Minutes after administration
[2] = 120 Minutes after administration

| Compound | Biodistribution, Blood [1] | Biodistribution, Femur and Tibia [1] | Biodistribution, Kidney [1] | Biodistribution, Liver [1] | Biodistribution, Urine [1] | Biodistribution, Blood [2] | Biodistribution, Femur and Tibia [2] | Biodistribution, Kidney [2] | Biodistribution, Liver [2] | Biodistribution, Urine [2] | change of accumulation level to the bone (in words) (SD-rats, from 15 minutes to 120 minutes after the administration) | accumulation to the bone (in words) (SD-rats, summary of Tables 3-8) | blood clearance (in words) (SD-rats, summary of Tables 3-8) | urinary excretion (in words) (SD-rats, summary of Tables 3-8) |
| --- | --- | --- | --- | --- | --- | --- | --- | --- | --- | --- | --- | --- | --- | --- |
| O=C(NCC(P(=O)(O)O)P(=O)(O)O)c1ccccc1I | 0.717 ± 0.159 % ID/g | 3.423 ± 0.302 % ID/g | 2.751 ± 0.951 % ID/g | 0.495 ± 0.078 % ID/g | 19.55 ± 0.72 % ID | 0.042 ± 0.006 % ID/g | 3.714 ± 0.474 % ID/g | 1.070 ± 0.539 % ID/g | 0.380 ± 0.037 % ID/g | 41.54 ± 4.19 % ID | did not significantly vary | accumulated to the bone quickly | relatively rapid | rapidly excreted into urine |
| O=C(O)CNC(=O)CC(P(=O)(O)O)P(=O)(O)O (99mTc complex, metal not drawn) [N-(3,3-diphosphonopropionyl)glycine] | 0.599 ± 0.103 % ID/g | 3.014 ± 0.377 % ID/g | 3.225 ± 0.543 % ID/g | 0.159 ± 0.009 % ID/g | 29.69 ± 0.14 % ID | 0.089 ± 0.037 % ID/g | 3.552 ± 0.327 % ID/g | 0.762 ± 0.279 % ID/g | 0.068 ± 0.003 % ID/g | 48.15 ± 1.50 % ID | – | – | – | – |
| O=C(O)CN(CCN(CC(=O)O)CC(=O)O)CCN(CC(=O)O)CC(=O)NCC(P(=O)(O)O)P(=O)(O)O [3,6-bis(carboxymethyl)-9-(((2,2-diphosphonoethyl)carbamoyl)m] [3,6-bis(carboxymethyl)-9-(((2,2-diphosphonoethyl)carbamoyl)methyl)-3,6,9-triazaundecanedicarboxylic acid] | 0.519 ± 0.025 % ID/g and 0.621 ± 0.239 % ID/g and 0.463 ± 0.056 % ID/g | 2.777 ± 0.311 % ID/g and 2.417 ± 0.495 % ID/g and 2.643 ± 0.182 % ID/g | – | – | 26.04 ± 9.29 % ID and 28.64 ± 5.55 % ID and 37.996 ± 5.927 % ID | – | 2.739 ± 0.385 % ID/g and 3.089 ± 0.340 % ID/g and 2.922 ± 0.187 % ID/g | – | – | 40.31 ± 9.02 % ID and 54.91 ± 1.96 % ID and 54.927 ± 4.073 % ID | – | – | – | – |
